From US20260217701A1, “SELECTIVE BET INHIBITORS AND USES THEREOF” (Tay Therapeutics Limited, priority 2022, published 2026)
“And” between values parts separate entries of the source, which are not always exact repeats. Equal entries are not always repeated.

Tested on: imiquimod-induced psoriasis
Test: Imiquimod-induced psoriasis model
Assay type: in vivo, mice
Set-up: Spleen Weight / Spleen Weight Ratio: unit not given here
Conditions: for PASI Scores: IMI + Clobetasol 0.05%; for Mean scores of the presence of erythema on the skin of animals at the area of induction of psoriasis / Mean scores of the presence of induration on the skin of animals at the area of induction of psoriasis / Mean scores of the presence of peeling on the skin of animals at the area of induction of psoriasis: mean ± SEM
Excerpt: Imiquimod-induced psoriasis is a model of psoriasis in mice that induces psoriasis-like dermatitis. The pathology closes resembles human plaque-type psoriasis and is a valuable tool for testing new therapies against psoriasis. […] Compound A was formulated in a 5% DMSO/40% PEG-400/55% (0.9% NaCl w/v water) solution (Table 2F). Experimental groups for the study are outlined in Table 4. Prior to study initiation, the backs of all animals in the study were depilated to allow for induction of psoriasis and monitoring of disease progression.
Once assigned to experimental groups, on Day 1 and continuing through Day 14, topical imiquimod (IMI; Aldara™ containing 5% Imiquimod) was administered to the dorsal depilated animals, and animals in group 1 received topical administration of Excipial® hydrocream (65 mg). […] Clobetasol was applied topically for animals in group 11.
Body weights were recorded three times a week from Day 1 to Day 8, and daily from Day 8 until the study end at Day 15. At termination on D15 the spleen weight ratio was determined. Disease severity was assessed using the psoriasis area severity index (PASI) daily from Day 8 until study completion on Day 15. The PASI score was calculated based on three parameters (presence of erythema, induration of the skin, and peeling of the skin at the area of induction) on a scale of 0 to 4 (0=no more or absence, 1=low, 2=moderate, 3=high, 4=severe). The PASI score for each animal was calculated as the sum of the score of each parameter measured. The score of the use of enrichment (SUE) was also assessed daily from Day 8 to Day 15. At study completion on Day 15, animal behavior was evaluated using an open field to assess distance travelled, number scratching, and licking and rearing performed in 10 minutes. Upon study termination animals were sacrificed, the spleen was excised and weighed, and blood samples were collected. Serum was isolated from the blood sample for cytokine and other biomarker analysis. IL-1B, IL-6, IL-17, and TNF-α assayed using simple plex technique on an ELLA automated immunoassay system. IL-22 and IL-23 were assayed by ELISA.
The imiquimod-induced model of psoriasis was used to assess the efficacy of Compound A in treating psoriasis. […] Treatment started on Day 8 after induction so reference to day 1 of treatment is to Day 8 and day 7 of treatment is to Day 14.

[1] = IMI-psoriasis model, behavioral evaluation D15, 0.05%, individual animals
[2] = IMI-psoriasis model, behavioral evaluation, 0.05%, individual animals
[3] = IMI-psoriasis model, mice, 0.05%, individual animals
[4] = IMI + 0.05%, D8 (before start of treatment)

## C[C@H]1C[C@H]2[C@@H]3CCC4=CC(=O)C=C[C@]4(C)[C@@]3(F)[C@@H](O)C[C@]2(C)[C@@]1(O)C(=O)CCl [Clobetasol, reference compound]
IMI + 0.05%, Day 1 (before treatment start on Day 8), individual animals
  Body Weight D1: 17.07 and 17.52 and 19.31 and 18.57 and 18.72 and 16.56 and 17.64 and 16.77
IMI + 0.05%, Day 3 (before treatment start on Day 8), individual animals
  Body Weight D3: 14.93 and 16.02 and 17.76 and 17.57 and 17.77 and 14.09 and 14.81 and 14.86
IMI + 0.05%, Day 5 (before treatment start on Day 8), individual animals
  Body Weight D5: 16.15 and 15.56 and 18.21 and 17.74 and 16.72 and 15.29 and 15.64 and 15.11
IMI + 0.05%, Day 7 (before treatment start on Day 8), individual animals
  Body Weight D7: 15.51 and 15.49 (2×) and 18.30 and 17.72 and 17.41 and 15.14 and 16.24
IMI + 0.05%, Day 8 (first day of treatment), individual animals
  Body Weight D8: 15.82 and 15.39 and 18.05 and 17.68 and 16.64 and 14.96 and 16.14 and 14.67
IMI + 0.05%, Day 9, individual animals
  Body Weight D9: 15.95 and 14.96 and 17.53 and 16.98 and 15.65 and 14.35 and 14.99 and 14.71
IMI + 0.05%, Day 10, individual animals
  Body Weight D10: 15.11 and 14.48 and 17.43 and 16.38 and 15.37 and 14.04 and 14.71 and 14.32
IMI + 0.05%, Day 11, individual animals
  Body Weight D11: 15.27 and 14.85 and 17.41 and 16.38 and 15.58 and 13.84 and 14.92 and 14.21
IMI + 0.05%, Day 12, individual animals
  Body Weight D12: 14.64 and 14.74 and 17.02 and 15.95 and 15.45 and 13.69 and 15.73 and 14.31
IMI + 0.05%, Day 13, individual animals
  Body Weight D13: 14.45 and 14.82 and 16.74 and 15.71 and 15.24 and 13.39 and 14.65 and 14.05
IMI + 0.05%, Day 14, individual animals
  Body Weight D14: 14.55 and 14.89 and 16.65 and 15.49 and 15.08 and 13.55 and 14.66 and 14.04
IMI + 0.05%, Day 15, individual animals
  Body Weight D15: 14.30 and 14.75 and 16.22 and 15.41 and 14.99 and 13.32 and 14.54 and 14.22
IMI + 0.05%, body weight change Day 1 to Day 8 (before treatment), individual animals
  MBWC D1-D8: −1.25 and −2.13 and −1.26 and −0.89 and −2.08 and −1.60 and −1.50 and −2.10
IMI + 0.05%, body weight change Day 8 to Day 15 (treatment period), individual animals
  MBWC D8-D15: −1.52 and −0.64 and −1.83 and −2.27 and −1.65 and −1.64 and −1.60 and −0.45
D8 (day treatment started), individual animals
  PASI Scores: 7 (5×) and 8 (3×)
D9, individual animals
  PASI Scores: 6 (2×) and 4 (4×) and 5 (2×)
D10, individual animals
  PASI Scores: 3 (5×) and 2 (2×) and 4
D11, individual animals
  PASI Scores: 0 (5×) and 1 and 2 (2×)
D12, individual animals
  PASI Scores: 1 (6×) and 0 (2×)
D13, individual animals
  PASI Scores: 1 (3×) and 0 (5×)
D14, individual animals
  PASI Scores: 0 (7×) and 1
D15, individual animals
  PASI Scores: 0 (7×) and 1
IMI-psoriasis model, D1, 0.05%, per cage (two animals)
  Use Enrichment D1: 4.0
IMI-psoriasis model, D9, 0.05%, per cage (two animals)
  Use Enrichment D9: 2.0 and 1.5 and 1.0
IMI-psoriasis model, D10, 0.05%, per cage (two animals)
  Use Enrichment D10: 4.0 and 3.5 and 3.0
IMI-psoriasis model, D11, 0.05%, per cage (two animals)
  Use Enrichment D11: 4.0 and 3.0
IMI-psoriasis model, D13, 0.05%, per cage (two animals)
  Use Enrichment D13: 4.0 and 3.5
IMI-psoriasis model, D14, 0.05%, per cage (two animals)
  Use Enrichment D14: 4.0
IMI-psoriasis model, D15, 0.05%, per cage (two animals)
  Use Enrichment D15: 4.0
[1]
  Number Licking: 1 (2×) and 2 (4×) and 5 (2×)
  Number Licking + Scratching: 1 (2×) and 2 (4×) and 5 (2×)
  Number Scratching: 0
[2]
  Distance Traveled: 9 m (2×) and 5 m and 10 m (3×) and 15 m and 16 m
  Number Rearings: 10 and 6 (2×) and 31 and 19 and 4 and 39 and 25
IMI-psoriasis model, mean D1-D8, 0.05%, per cage (two animals)
  Use Enrichment Mean D1-D8: 2.50 and 2.75 and 2.25
IMI-psoriasis model, mean D8-D15, 0.05%, per cage (two animals)
  Use Enrichment Mean D8-D15: 3.71 and 3.50 and 2.86 and 3.14
[3]
  Spleen Weight: 39.92 and 30.38 and 50.46 and 44.29 and 37.25 and 36.61 and 35.08 and 34.69
  Spleen Weight Ratio: 279.16 and 205.97 and 311.10 and 287.41 and 248.50 and 274.85 and 241.27 and 243.95
[4]
  Mean scores of the presence of erythema on the skin of animals at the area of induction of psoriasis: 2.3 ± 0.2
  Mean scores of the presence of induration on the skin of animals at the area of induction of psoriasis: 2.8 ± 0.2
  Mean scores of the presence of peeling on the skin of animals at the area of induction of psoriasis: 2.4 ± 0.2
IMI + 0.05%, D9
  Mean scores of the presence of erythema on the skin of animals at the area of induction of psoriasis: 1.8 ± 0.2
  Mean scores of the presence of induration on the skin of animals at the area of induction of psoriasis: 1.3 ± 0.2
  Mean scores of the presence of peeling on the skin of animals at the area of induction of psoriasis: 1.8 ± 0.3
IMI + 0.05%, D10
  Mean scores of the presence of erythema on the skin of animals at the area of induction of psoriasis: 1.0 ± 0.2
  Mean scores of the presence of induration on the skin of animals at the area of induction of psoriasis: 1.0 ± 0.0
  Mean scores of the presence of peeling on the skin of animals at the area of induction of psoriasis: 0.9 ± 0.1
IMI + 0.05%, D11
  Mean scores of the presence of erythema on the skin of animals at the area of induction of psoriasis: 0.3 ± 0.2
  Mean scores of the presence of induration on the skin of animals at the area of induction of psoriasis: 0.0 ± 0.0
  Mean scores of the presence of peeling on the skin of animals at the area of induction of psoriasis: 0.4 ± 0.2
IMI + 0.05%, D12
  Mean scores of the presence of erythema on the skin of animals at the area of induction of psoriasis: 0.0 ± 0.0
  Mean scores of the presence of induration on the skin of animals at the area of induction of psoriasis: 0.0 ± 0.0
  Mean scores of the presence of peeling on the skin of animals at the area of induction of psoriasis: 0.8 ± 0.2
IMI + 0.05%, D13
  Mean scores of the presence of erythema on the skin of animals at the area of induction of psoriasis: 0.0 ± 0.0
  Mean scores of the presence of induration on the skin of animals at the area of induction of psoriasis: 0.0 ± 0.0
  Mean scores of the presence of peeling on the skin of animals at the area of induction of psoriasis: 0.4 ± 0.2
IMI + 0.05%, D14
  Mean scores of the presence of erythema on the skin of animals at the area of induction of psoriasis: 0.0 ± 0.0
  Mean scores of the presence of induration on the skin of animals at the area of induction of psoriasis: 0.0 ± 0.0
  Mean scores of the presence of peeling on the skin of animals at the area of induction of psoriasis: 0.1 ± 0.1
IMI + 0.05%, D15
  Mean scores of the presence of erythema on the skin of animals at the area of induction of psoriasis: 0.0 ± 0.0
  Mean scores of the presence of induration on the skin of animals at the area of induction of psoriasis: 0.0 ± 0.0
  Mean scores of the presence of peeling on the skin of animals at the area of induction of psoriasis: 0.1 ± 0.1
mice, IMI + 0.05%, D8 (before start of treatment)
  Mean PASI Scores in IMI-Psoriasis Model: 7.4 ± 0.2
mice, IMI + 0.05%, D9
  Mean PASI Scores in IMI-Psoriasis Model: 4.8 ± 0.3
mice, IMI + 0.05%, D10
  Mean PASI Scores in IMI-Psoriasis Model: 2.8 ± 0.2
mice, IMI + 0.05%, D11
  Mean PASI Scores in IMI-Psoriasis Model: 0.6 ± 0.3
mice, IMI + 0.05%, D12
  Mean PASI Scores in IMI-Psoriasis Model: 0.8 ± 0.2
mice, IMI + 0.05%, D13
  Mean PASI Scores in IMI-Psoriasis Model: 0.4 ± 0.2
mice, IMI + 0.05%, D14
  Mean PASI Scores in IMI-Psoriasis Model: 0.1 ± 0.1
mice, IMI + 0.05%, D15
  Mean PASI Scores in IMI-Psoriasis Model: 0.1 ± 0.1
